Measurements as given in publication PMC7566095 (iScience, 2020).
Each block holds one sequence with its values, some of them ahead of it. Bridge positions count the residues as written; N and C are the ends. Ends that are not written are not given here.

Tests used:
Set-up in all cases: species or system HIV
[1] = target: mAb 257D binding to SF162 gp120 protein; assay: Competition peptide ELISA, mAb 257D
[2] = tested on: mAb F240 binding to MN gp41 protein; assay: Competition peptide ELISA, mAb F240; conditions: peptide 4-fold serial dilutions beginning at 20 ug/mL
[3] = tested on: mAb 240D binding to MN gp41 protein; assay: Competition peptide ELISA, mAb 240D; conditions: peptide 4-fold serial dilutions beginning at 20 ug/mL
[4] = tested on: mAb 447-52D binding to SF162 gp120 protein; assay: Competition peptide ELISA, mAb 447-52D; conditions: for competition of peptide for binding of mAb 447-52D to gp120 protein: peptide 4-fold serial dilutions beginning at 20 ug/mL
[5] = competition ELISA, SF162 gp120 coated, unpaired t test, three replicate experiments
[6] = competition ELISA, SF162 gp120 coated

Sequence: EKSIHIGPGRAFY [R304E]
IC50 of peptide compared with wild-type V3 peptide, mAb 257D [1, 5]: did not yield IC50 values that were significantly different from the wild-type peptide

competition of peptide for binding of mAb F240 to gp41 protein [2]: competed for binding
competition of peptide for binding of mAb 240D to gp41 protein [3]: competed for binding
Sequence: LLGIWGCSGKLICTTNVP (disulfide 7-13 (inferred)) [wild-type gp41 peptide]

competition of peptide for binding of mAb F240 to gp41 protein [2]: no longer competes for binding
competition of peptide for binding of mAb 240D to gp41 protein [3]: no longer competes for binding
Sequence: LLGIWGDSGKLICTTNVP [C598D]

competition of peptide for binding of mAb 447-52D to gp120 protein [4]: competed for binding
competition of peptide for binding of mAb 257D to gp120 protein ([1]; peptide 4-fold serial dilutions beginning at 20 ug/mL): competed for binding
Sequence: RKSIHIGPGRAFY [wild-type V3 peptide]

competition of peptide for binding of mAb 447-52D to gp120 protein [4]: improved binding above wild-type levels
Sequence: RKSIHIGPGRATY [F317T]

fold increase in IC50 versus wild-type V3 peptide, mAb 447-52D [4, 6]: 72 fold
fold increase in IC50 versus wild-type V3 peptide, mAb 257D [1, 6]: 5 fold
Sequence: RKSIHIGPGWAFY [R315W]

Sequence: RTSIHIGPGRAFY [K305T]
IC50 of peptide compared with wild-type V3 peptide, mAb 447-52D [4, 5]: did not yield IC50 values that were significantly different from the wild-type peptide
